The test system of one assay is MOLM13. The assay is described as follows: 7-day proliferation assay (WST-8), MOLM13. In kind it is cell-based. The settings on record: Homo sapiens, MOLM-13, 168 h, 7 days, read-out: IC50 in cell growth inhibition. The procedure: (§1) The effect of representative Compounds of the Disclosure on cell viability was determined in a 7-day proliferation assay. Cells were maintained in the appropriate culture medium with 10% FBS at 37° C. and an atmosphere of 5% CO2.
(§2) Cells were seeded in 96-well flat bottom (Corning COSTAR, Corning, N.Y., cat #3595) at a density of 2,000-3,000 cells/well in 100 μl of culture medium. Compounds were serially diluted in the appropriate medium, and 100 μl of the diluted compounds were added to the appropriate wells of the cell plate. After the addition of compounds, the cells were incubated at 37° C. in an atmosphere of 5% CO2 for 7 days. Cell viability was determined using the WST (2-(2-methoxy-4-nitrophenyl)-3-(4-nitrophenyl)-5-(2,4-disulfophenyl)-2H-tetrazolium, monosodium salt) Cell Counting-8 Kit (Dojindo Molecular Technologies, Inc., Rockville, Md.) according to the manufacturers' instructions.
(§3) WST-8 reagent was added to each well at a final concentration of 10% (v/v), and then the plates were incubated at 37° C. for 1-2 hours for color development. The absorbance was measured at 450 nm using a SPECTRAmax PLUS plate reader (Molecular Devices, Sunnyvale, Calif.). The readings were normalized to the DMSO-treated cells and the half maximal inhibitory concentration (IC50) was calculated by nonlinear regression (four parameters sigmoid fitted with variable slope, least squares fit, and no constraint) analysis using the GraphPad Prism 5 software (GraphPad Software, La Jolla, Calif.).
(Formazan colour is commonly taken as a measure of viable cells.)

Another assay concerns SEM cells. The assay is described as follows: 7-day proliferation assay (WST-8), SEM. Format: cell-based. The settings on record: MLL-AF9, 168 h; Table 4; 7 days; read-out: IC50 in cell growth inhibition. How it is done: as §1, §2, §3
Assay [1] deals with T1, menin protein (Homo sapiens (Human), UniProt O00255). Kind of assay: Covalent binding to menin protein by mass spectroscopy. The settings on record: incubated with recombinant human menin, compared to menin apo. The procedure: No. 1 and Cpd. […] Recombinant human menin protein was incubated with Cpd. No. 1 or Cpd. No. 3 and compared to menin protein alone (Menin apo).
T1 sequence (O00255 whole entry): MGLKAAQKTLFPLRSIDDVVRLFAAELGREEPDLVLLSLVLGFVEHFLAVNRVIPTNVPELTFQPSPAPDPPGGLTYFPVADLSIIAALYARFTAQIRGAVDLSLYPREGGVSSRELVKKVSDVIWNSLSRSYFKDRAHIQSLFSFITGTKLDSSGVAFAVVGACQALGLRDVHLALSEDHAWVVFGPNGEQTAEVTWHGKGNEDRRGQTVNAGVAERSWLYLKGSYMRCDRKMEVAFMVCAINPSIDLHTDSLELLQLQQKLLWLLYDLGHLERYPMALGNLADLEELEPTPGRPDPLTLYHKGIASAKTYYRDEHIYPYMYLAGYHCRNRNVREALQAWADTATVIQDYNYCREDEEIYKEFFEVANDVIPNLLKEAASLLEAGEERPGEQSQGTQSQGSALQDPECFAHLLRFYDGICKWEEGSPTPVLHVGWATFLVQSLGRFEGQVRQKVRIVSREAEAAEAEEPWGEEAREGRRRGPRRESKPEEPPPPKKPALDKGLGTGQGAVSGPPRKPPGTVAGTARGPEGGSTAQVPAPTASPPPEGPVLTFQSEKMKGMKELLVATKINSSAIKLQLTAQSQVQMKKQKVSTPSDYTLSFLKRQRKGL
For assay [2], the target named is T1, menin protein. The assay is described as follows: Fluorescence polarization (FP) competitive binding assay, menin binding affinity. The settings on record: menin protein 4 nM, probe 2 nM, room temperature 30 minutes. How it is done: A fluorescence polarization (FP) competitive binding assay was used to determine the binding affinities of representative menin inhibitors. A FAM labeled fluorescent probe was designed and synthesized based on a MLL1 peptide (FAM-MM2). Equilibrium dissociation constant (Kd) value of FAM-MM2 to menin protein was determined from protein saturation experiments by monitoring the total fluorescence polarization of mixtures composed with the fluorescent probe at a fixed concentration and the protein with increasing concentrations up to full saturation. Serial dilutions of the protein were mixed with FAM-MM2 to a final volume of 200 μl in the assay buffer (PBS with 0.02% Bovine γ-Globulin and 4% DMSO. 0.01% Triton X-100 was added right before assays). Final FAM-MM2 concentration was 2 nM. Plates were incubated at room temperature for 30 minutes with gentle shaking to assure equilibrium. FP values in millipolarization units (mP) were measured using the Infinite M-1000 plate reader (Tecan U.S., Research Triangle Park, N.C.) in Microfluor 1 96-well, black, v-bottom plates (Thermo Scientific, Waltham, Mass.) at an excitation wavelength of 485 nm and an emission wavelength of 530 nm.
The IC50, see Table 3, of representative Compounds of the Disclosure were determined in a competitive binding experiment. Mixtures of 5 μl of the tested compounds in DMSO and 195 μl of preincubated protein/probe complex solution in the assay buffer were added into assay plates which were incubated at room temperature for 30 minutes with gentle shaking. Final concentration of the menin protein was 4 nM, and final probe concentration is 2 nM. Negative controls containing protein/probe complex only (equivalent to 0% inhibition), and positive controls containing only free probes (equivalent to 100% inhibition), were included in each assay plate. FP values were measured as described above. IC50 values were determined by nonlinear regression fitting of the competition curves.
Background: In fluorescence polarisation assays a small probe gives low polarisation when free and higher when bound to something large.

The test system of a further assay is MV4-11. Kind of assay: 7-day proliferation assay (WST-8), MV4-11. The settings on record: Homo sapiens, 168 h, 7 days, read-out: IC50 in cell growth inhibition. In kind it is cell-based. How it is done: as §1, §2, §3
For a further assay, the system named is RS4-11. Kind of assay: 7-day proliferation assay (WST-8), RS4-11. The settings on record: Homo sapiens, 168 h; Table 4; RS4-11, B-lineage ALL, MLL/AF4; 7 days; read-out: IC50 in cell growth inhibition. In kind it is cell-based. The procedure: as §1, §2, §3
A further assay has as its system MOLM14. Kind of assay: 7-day proliferation assay (WST-8), MOLM14. In kind it is cell-based. The settings on record: Homo sapiens, MOLM-14, 168 h; Table 4; MOLM14, AML, MLL/AF9; 7 days; read-out: IC50 in cell growth inhibition. How it is done: as §1, §2, §3
The next assay has as its system MonoMac6. The assay is described as follows: 7-day proliferation assay (WST-8), MonoMac6. The settings on record: Homo sapiens, MONO-MAC-6, 168 h; Table 4; MonoMac6, AML, MLL/AF9; 7 days; read-out: IC50 in cell growth inhibition. Format: cell-based. The procedure: as §1, §2, §3

This note sets out measurements from patent US11045448B2, “Piperidines as covalent menin inhibitors” (THE REGENTS OF THE UNIVERSITY OF MICHIGAN, priority 2017, dated 2021).

The structures appear in SMILES notation. Like-named read-outs stand apart in the source and are kept apart here.

A word on the IC50: it is the midpoint of a concentration-inhibition curve.

Consider `C=CC(=O)N1CC(S(=O)(=O)c2ccc(N3CC(CN4CCC([C@@](C#N)(c5cccc(F)c5)[C@H]5CCC[C@@H]5OC(=O)NC)CC4)C3)cc2)C1` [Cpd. No. 1, (1S,2R)-2-((S)-(1-((1-(4-((1-acryloylazetidin-3-yl)sulfonyl)phenyl)azetidin-3-yl)methyl)piperidin-4-yl)(cyano)(3-fluorophenyl)methyl)cyclopentyl methylcarbamate], for which the IC50 amounted to 27.2 nM in the assay on MOLM13 (Table 4, MOLM13, AML, MLL/AF9); 10.9 nM in the assay with SEM cells; 5 nM at menin protein [2]; 4.3 nM with MV4-11 (Table 4, MV4-11, AML, MLL/AF4); 8.8 nM with RS4-11; 41 nM in the assay with MOLM14. In addition, the IC50 in the assay with MonoMac6 was 84 nM. Also, the “Covalent binding with menin protein (mass spectroscopy)” value at menin protein [1] is “covalently bind with menin protein”.
For `C=CC(=O)Nc1cccc(S(=O)(=O)c2ccc(N3CC(CN4CCC([C@@](Cn5ccnc5CC)(c5cccc(F)c5)[C@H]5CCC[C@@H]5NC(=O)OC)CC4)C3)cc2)c1` [Cpd. No. 7, methyl ((1S,2R)-2-((S)-1-(1-((1-(4-((3-acrylamidophenyl)sulfonyl)phenyl)azetidin-3-yl)methyl)piperidin-4-yl)-2-(2-ethyl-1H-imidazol-1-yl)-1-(3-fluorophenyl)ethyl)cyclopentyl)carbamate], the IC50 with MOLM13 (Table 4, MOLM13, AML, MLL/AF9) worked out at 16.9 nM; in the assay on SEM cells, 4.7 nM; at menin protein [2], 3 nM; with MV4-11 (Table 4, MV4-11, AML, MLL/AF4), 2.2 nM; with RS4-11, 5.9 nM; in the assay on MOLM14 it was 17.6 nM. The IC50 in the assay on MonoMac6 is 67.7 nM.
For the compound `C=CC(=O)Nc1cccc(S(=O)(=O)c2ccc(N3CC(CN4CCC([C@@](C#N)(c5cccc(F)c5)[C@H]5CCC[C@@H]5OC(=O)NC)CC4)C3)cc2)c1` [Cpd. No. 3, (1S,2R)-2-((S)-(1-((1-(4-((3-acrylamidophenyl)sulfonyl)phenyl)azetidin-3-yl)methyl)piperidin-4-yl)(cyano)(3-fluorophenyl)methyl)cyclopentyl methylcarbamate], the “Covalent binding with menin protein (mass spectroscopy)” value at menin protein [1] is recorded as “covalently bind with menin protein”. Moreover, the IC50 on menin protein [2] was 3 nM.
Turning to `C=CC(=O)N1CC(S(=O)(=O)c2ccc(N3CC(CN4CCC([C@@](C#N)(c5cccc(F)c5)[C@H]5CCC[C@@H]5NC(=O)OC)CC4)C3)cc2)C1` [Cpd. No. 6, methyl ((1S,2R)-2-((S)-(1-((1-(4-((1-acryloylazetidin-3-yl)sulfonyl)phenyl)azetidin-3-yl)methyl)piperidin-4-yl)(cyano)(3-fluorophenyl)methyl)cyclopentyl)carbamate], the IC50 in the assay with MOLM13 (Table 4, MOLM13, AML, MLL/AF9) came to 154 nM; with SEM cells, 79 nM; at menin protein [2], 3 nM; in the assay with MV4-11 (Table 4, MV4-11, AML, MLL/AF4), 44.8 nM; in the assay on RS4-11, 62.1 nM; with MOLM14, 180 nM. Besides, the IC50 with MonoMac6 came out at 764 nM.
For `C=CC(=O)Nc1cccc(S(=O)(=O)c2ccc(N3CC(CN4CCC([C@@](C#N)(c5cccc(F)c5)[C@H]5CCC[C@@H]5NC(=O)OC)CC4)C3)cc2)c1` [Cpd. No. 5, methyl ((1S,2R)-2-((S)-(1-((1-(4-((3-acrylamidophenyl)sulfonyl)phenyl)azetidin-3-yl)methyl)piperidin-4-yl)(cyano)(3-fluorophenyl)methyl)cyclopentyl)carbamate], the IC50 with MOLM13 (Table 4, MOLM13, AML, MLL/AF9) amounted to 41.4 nM; with SEM cells, 39.6 nM; at menin protein [2] it was 2 nM; with MV4-11 (Table 4, MV4-11, AML, MLL/AF4) it was 8.3 nM; with RS4-11, 10.7 nM; in the assay on MOLM14, 78.8 nM. For the same compound, the IC50 in the assay with MonoMac6 amounted to 156 nM.
On to `CCc1nccn1C[C@@](c1cccc(F)c1)(C1CCN(CC2CN(c3ccc(S(=O)(=O)C4CN(C(=O)/C=C/CN5CCCCC5)C4)cc3)C2)CC1)[C@H]1CCC[C@@H]1NC(=O)OC` [Cpd. No. 73, methyl ((1S,2R)-2-((S)-2-(2-ethyl-1H-imidazol-1-yl)-1-(3-fluorophenyl)-1-(1-((1-(4-((1-((E)-4-(piperidin-1-yl)but-2-enoyl)azetidin-3-yl)sulfonyl)phenyl)azetidin-3-yl)methyl)piperidin-4-yl)ethyl)cyclopentyl)carbamate], for which the IC50 with MOLM13 (Table 5, MOLM13) is 6 nM; at menin protein [2], 2 nM; in the assay on MV4-11 (Table 5, MV4-11) it was 0.1 nM.
